From article PMC9511441, “Semisynthetic teicoplanin derivatives with dual antimicrobial activity against SARS-CoV-2 and multiresistant bacteria” (Scientific Reports, 2022)
Read-outs that look alike come from different tables or passages of the source.

How the values were obtained:
[1] = system: Klebsiella pneumoniae ST258 clone K 160/09; test: MIC against Gram-negative strain; settings: Klebsiella pneumoniae
[2] = system: S. haemolyticus; test: MIC, broth microdilution; type: cell-based; settings: Staphylococcus haemolyticus
[3] = system: S. aureus; test: MIC, broth microdilution; type: cell-based; settings: Staphylococcus aureus
[4] = system: E. faecalis; test: MIC, broth microdilution; type: cell-based; settings: Enterococcus faecalis
[5] = system: S.pyogenes; test: MIC, broth microdilution; type: cell-based; settings: Streptococcus pyogenes
[6] = system: S. epidermidis; test: microbe, parasite or virus in culture; type: cell-based; settings: Staphylococcus epidermidis
[7] = system: E. faecium; test: microbe, parasite or virus in culture; type: cell-based; settings: Enterococcus faecium
[8] = system: Calu-3 cells; test: Cytotoxicity in mock-infected Calu-3 cells (XTT); settings: read-out: CC50, Calu-3 cells, three days
[9] = system: S. aureus ATCC29213; test: Fluorescent competition assay, release of fluorescent vancomycin; settings: cells saturated with FL-VAN, Fig. 7 left panel
[10] = system: VeroE6 cells; test: Cytotoxicity in mock-infected VeroE6 cells (XTT); type: cell-based, African green monkey; settings: mock-infected Vero E6 cells, three days, XTT
[11] = system: Pseudomonas aeruginosa ATCC 27853; test: MIC against Gram-negative strain; settings: ATCC27853
[12] = system: HEL cells; test: Cytotoxicity in mock-infected HEL cells (MTS); type: cell-based, human; settings: mock-infected HEL cells, MTS, mean of 2–3 tests
[13] = system: Acinetobacter baumannii ATCC BAA1605; test: MIC against Gram-negative strain; settings: Acinetobacter baumannii, ATCCBAA1605
[14] = system: Escherichia coli ATCC 25218; test: MIC against Gram-negative strain; settings: ATCC25218
[15] = target: T1, human recombinant cathepsin L (Homo sapiens, UniProt P07711); test: biochemical; type: biochemical; settings: read-out: Cathepsin L IC50; pH 5.5, Z-Phe-Arg-AMC substrate
T1 construct: made in house; host or cells: Escherichia coli
T1 sequence (P07711 114-333): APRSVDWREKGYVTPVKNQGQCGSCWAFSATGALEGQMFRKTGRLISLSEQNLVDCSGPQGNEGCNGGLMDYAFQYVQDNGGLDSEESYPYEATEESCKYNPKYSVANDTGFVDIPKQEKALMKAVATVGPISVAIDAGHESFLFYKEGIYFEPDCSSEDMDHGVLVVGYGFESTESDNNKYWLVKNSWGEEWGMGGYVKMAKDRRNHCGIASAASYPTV

[16] = system: SARS-CoV-2 pseudovirus; test: microbe, parasite or virus in culture; type: cell-based; settings: A549-AT cells, TMPRSS2-mediated uptake
[17] = system: SARS-CoV-2 pseudovirus; test: microbe, parasite or virus in culture; type: cell-based; settings: cathepsin-dependent endosomal pathway
[18] = S. haemolyticus mecA, 6 strains, read-out: Average MIC value
[19] = S.haemolyticus DALB_R1, mecA, read-out: MIC value
[20] = S.haemolyticus DALB_R2, mecA, read-out: MIC value
[21] = S.haemolyticus DALB_R3, mecA, read-out: MIC value
[22] = S.haemolyticus DALB_R4, mecA, read-out: MIC value
[23] = S.haemolyticus DALB_R5, mecA, read-out: MIC value
[24] = S.haemolyticus ORI_R1, mecA, read-out: MIC value
[25] = ATCC 29213 / MSSA, read-out: MIC value, S. aureus ATCC29213, MSSA
[26] = MRSA / USA300, read-out: MIC value, S. aureus USA300, CA-MRSA
[27] = MRSA, read-out: Average MIC value, S. aureus CA-MRSA, 1 strain
[28] = MRSA, read-out: Average MIC value, S. aureus MRSA, 7 strains
[29] = MRSA, read-out: MIC value, S. aureus 73OL, MRSA
[30] = MRSA, read-out: MIC value, S. aureus 214OL, MRSA
[31] = MRSA, read-out: MIC value, S. aureus 1041OL, MRSA
[32] = MRSA, read-out: MIC value, S. aureus A6918, MRSA
[33] = MRSA, read-out: MIC value, S. aureus A6919, MRSA
[34] = MRSA, read-out: MIC value, S. aureus Mu50, MRSA
[35] = MRSA, read-out: MIC value, S. aureus N315, MRSA
[36] = MSSA / NEWMAN, read-out: MIC value, S. aureus Newman, MSSA
[37] = MSSA, read-out: Average MIC value, S. aureus MSSA, 4 strains
[38] = MSSA, read-out: MIC value, S. aureus MSSA476, MSSA
[39] = MSSA, read-out: MIC value, S. aureus SA564, MSSA
[40] = read-out: Average MIC value, E. faecalis VAN^R,TEI^R/VanA, 1 strain
[41] = read-out: Average MIC value, E. faecalis VAN^S, TEI^S, 2 strains
[42] = read-out: MIC value, E.faecalis JH2-2
[43] = read-out: MIC value, E.faecalis OG1RF
[44] = read-out: MIC value, E.faecalis V583, VAN,TEI/VanA
[45] = read-out: MIC value, S.pyogenes H232
[46] = read-out: MIC value, S.pyogenes H550
[47] = read-out: MIC value, S.pyogenes H578
[48] = read-out: Average MIC value, S. epidermidis mecA, 6 strains
[49] = read-out: MIC value, S.epidermidis ORI_R1, mecA
[50] = read-out: MIC value, S.epidermidis ORI_R2, mecA
[51] = read-out: MIC value, S.epidermidis ORI_R3, mecA
[52] = read-out: MIC value, S.epidermidis ORI_R4, mecA
[53] = read-out: MIC value, S.epidermidis TEI_R1, mecA
[54] = read-out: MIC value, S.epidermidis TEI_R2, mecA
[55] = read-out: Average MIC value, E. faecium VAN^R,TEI^R/VanA, 8 strains
[56] = read-out: Average MIC value, E. faecium VAN^S, TEI^S, 1 strain
[57] = read-out: MIC value, E.faecium E335, VAN,TEI,LNZ/VanA
[58] = read-out: MIC value, E.faecium E355, VAN,TEI,LNZ/VanA
[59] = read-out: MIC value, E.faecium E832, VAN,TEI,LNZ/VanA
[60] = read-out: MIC value, E.faecium E854, VAN,TEI,LNZ/VanA
[61] = read-out: MIC value, E.faecium E859, VAN,TEI,LNZ/VanA
[62] = read-out: MIC value, E.faecium E1114, VAN,TEI,LNZ/VanA
[63] = read-out: MIC value, E.faecium E1131, VAN,TEI,LNZ/VanA
[64] = read-out: MIC value, E.faecium E1132, VAN,TEI,LNZ/VanA
[65] = read-out: MIC value, E.faecium TX0016

CC(=O)N[C@H]1[C@H](O[C@@H]2c3ccc(c(Cl)c3)Oc3cc4cc(c3O)Oc3ccc(cc3Cl)C[C@H]3NC(=O)[C@H](NC(=O)c5cc(OCCCSCCNC(=N)N)c(OCCCSCCNC(=N)N)c(OCCCSCCNC(=N)N)c5)c5ccc(O)c(c5)Oc5cc(O)cc(c5)[C@H](NC3=O)C(=O)N[C@H]4C(=O)N[C@H]3C(=O)N[C@@H]2C(=O)N[C@H](C(=O)O)c2cc(O)cc(O)c2-c2cc3ccc2O)O[C@H](CO)[C@@H](O)[C@@H]1O [Compound 7]
0.25 µg/mL: MIC [3, 35] | MIC [5, 45] | MIC [5, 46] | MIC [5, 47] | MIC [6, 48] | MIC [6, 49] | MIC [6, 50] | MIC [6, 51] | MIC [6, 52] | MIC [6, 53] | MIC [6, 54]
> 100 µM: CC50 [8] | CC50 [10] | CC50 [12]
2 µg/mL: MIC [2, 21] | MIC [2, 22] | MIC [3, 38] | MIC [4, 41] | MIC [4, 42] | MIC [4, 43] | MIC [7, 56] | MIC [7, 65]
4.5 ± 1 µM: IC50 [15]
1 µg/mL: MIC [2, 19] | MIC [2, 20] | MIC [3, 26] | MIC [3, 27] | MIC [3, 29] | MIC [3, 30] | MIC [3, 31] | MIC [3, 32] | MIC [3, 33] | MIC [3, 34] | MIC [3, 36] | MIC [3, 39]
1.2 µg/mL: MIC [2, 18]
> 8 µg/mL: MIC [4, 40] | MIC [4, 44] | MIC [7, 55] | MIC [7, 57] | MIC [7, 58] | MIC [7, 59] | MIC [7, 60] | MIC [7, 61] | MIC [7, 62] | MIC [7, 63] | MIC [7, 64]
512 µg/mL: MIC [1]
no effect: Outcompeting fluorescent vancomycin from S. aureus (in words) [9]
128 µg/mL: MIC [11] | MIC [13]
1.12 µg/mL: MIC [3, 37]
256 µg/mL: MIC [14]
0.5 µg/mL: MIC [2, 23] | MIC [2, 24] | MIC [3, 25]
0.89 µg/mL: MIC [3, 28]

CC(=O)N[C@H]1[C@H](O[C@@H]2c3ccc(c(Cl)c3)Oc3cc4cc(c3O)Oc3ccc(cc3Cl)C[C@H]3NC(=O)[C@H](n5cc(COCCCC(F)(F)C(F)(F)C(F)(F)C(F)(F)C(F)(F)C(F)(F)F)nn5)c5ccc(O)c(c5)Oc5cc(O)cc(c5)[C@H](NC3=O)C(=O)N[C@H]4C(=O)N[C@H]3C(=O)N[C@@H]2C(=O)N[C@H](C(=O)O)c2cc(O)cc(O)c2-c2cc3ccc2O)O[C@H](CO)[C@@H](O)[C@@H]1O [Compound 4]
1 µg/mL: MIC [2, 23] | MIC [3, 25] | MIC [3, 32] | MIC [3, 33] | MIC [6, 50] | MIC [6, 51]
66 ± 1 µM: IC50 [15]
93 ± 11 µM: CC50 [8]
6.8 µg/mL: MIC [2, 18]
2 µg/mL: MIC [3, 26] | MIC [3, 27] | MIC [3, 29] | MIC [3, 30] | MIC [3, 31] | MIC [3, 34] | MIC [3, 35] | MIC [3, 36] | MIC [3, 38] | MIC [3, 39] | MIC [6, 49]
1.75 µg/mL: MIC [3, 37]
0.125 µg/mL: MIC [6, 54]
highly effective: Inhibition of pseudovirus entry in Vero cells (in words) [17]
1.71 µg/mL: MIC [3, 28]
active, though less potent: Inhibition of pseudovirus entry in A549-AT cells (in words) [16]
0.812 µg/mL: MIC [6, 48]
0.0625 µg/mL: MIC [5, 45] | MIC [5, 46] | MIC [5, 47]
0.25 µg/mL: MIC [4, 41] | MIC [4, 42] | MIC [4, 43] | MIC [6, 52] | MIC [7, 56] | MIC [7, 65]
0.5 µg/mL: MIC [6, 53]
> 100 µM: CC50 [10] | CC50 [12]
8 µg/mL: MIC [2, 19] | MIC [2, 20] | MIC [2, 21] | MIC [2, 22] | MIC [2, 24]
> 8 µg/mL: MIC [4, 40] | MIC [4, 44] | MIC [7, 55] | MIC [7, 57] | MIC [7, 58] | MIC [7, 59] | MIC [7, 60] | MIC [7, 61] | MIC [7, 62] | MIC [7, 63] | MIC [7, 64]
